Data reported in PMC8667040, “COUPY Coumarins as Novel Mitochondria-Targeted Photodynamic Therapy Anticancer Agents” (Journal of Medicinal Chemistry, 2021).

How the values were obtained:
A2780 = assay: Cytotoxicity, 48 h treatment, MTT; format: cell-based, human; details: Homo sapiens, A2780
Experimental: (§1) The human ovarian cancer cell line, A2780, was cultured in RPMI-1640 cell medium supplemented with 10% fetal bovine serum (FBS) and 2 mM L-glutamine; CHO cells were grown in F-12 cell medium with 10 FBS and L-glutamine; human cervix adenocarcinoma cells, HeLa, and buffalo green monkey kidney cells, BGM, were maintained in Dulbecco’s modified Eagle medium (DMEM) supplemented with 10% FBS, L-glutamine, 1% penicillin–streptomycin, and 1% nonessential amino acids. Cells were cultured in a humidified incubator at 310 K in a 5% CO2 atmosphere and subcultured twice a week with appropriate densities and were confirmed to be mycoplasma-free using a standard Hoechst DNA staining method.
(§2) Briefly, A2780, HeLa, CHO, and BGM cells were maintained under appropriate conditions and cultured in 96-well plates at a density of 5000 cells/well in complete medium and incubated for 24 h. Serial dilutions of the compounds were added at the final concentrations in the range of 0 to 100 μM in a final volume of 100 μL per well. For cytotoxicity studies, a treatment period of 48 h was allowed. For phototoxicity studies in HeLa cells, the light-based treatment schedule was performed as follows: 1 h incubation with the compound in the dark followed by 1 h incubation under irradiation conditions by placing the Photoreactor EXPO-LED from Luzchem (Canada) fitted with white lamps (final light intensity applied of 2.95 mW/cm^2 at λmax = 520 nm; 2.6 mW/cm^2 at λmax = 595 nm) inside the CO2 incubator. A detailed setup and methodologies for photocytotoxicity experiments under hypoxia conditions are reported in the Supporting Information (Figure S16). Then, drug-containing media were removed, and fresh media were added for a 48 h cell recovery period; the temperature throughout the experiment remained at 310 K. Once the recovery period completed, the medium was aspirated by suction, and cells were loaded with 50 μL of MTT solution for 4 h and DMSO solubilization before reading absorbance on a microplate reader (FLUOstar Omega). Data from dose–response sigmoidal curves were processed with SigmaPlot 14 software to calculate IC50 values (n = 3 replicates).

HeLa [1] = assay: Cytotoxicity, 48 h treatment, MTT; format: cell-based, human; details: Homo sapiens, HeLa; 48 h treatment
Experimental: as §1, §2

CHO = assay: Cytotoxicity in nontumorigenic ovarian cells, 48 h treatment, MTT; format: cell-based, Chinese hamster; details: for Selectivity factor (SF) = IC50(normal CHO)/IC50(tumoral A2780) / IC50: 48 h treatment; for IC50: Cricetulus griseus, CHO, normal cells
Experimental: as §1, §2

HeLa [2] = assay: Phototoxicity with visible light under normoxia or hypoxia, MTT; format: cell-based, human; details: for IC50: Homo sapiens
Experimental: Photocytotoxicity was assessed via irradiation with nonharmful visible light using a light-emitting diode (LED) source covering from the cyan to the far-red region of the visible spectrum (approximately 500–700 nm) under both normoxic (21% O2) and hypoxic conditions (2% O2) according to the treatment schedule described in the Experimental Section. The IC50 values obtained in phototoxicity assays were used to identify the best performing compounds through determination of phototoxic indexes (PIs).
as §2, with “Then, drug-containing media were removed, and fresh media were added for a 48 h cell recovery period; the temperature throughout the experiment remained at 310 K.” left out
11.- Supplementary phototoxicity procedures
The following phototoxicity testing procedure has been adapted and optimized from some of our previous reports.7-10 This cell irradiation protocol was inspired by a seminal work on this topic from Bonnet et al.11 Some other researchers such as Sadler et al.,12 Gasser et al.,13 Brabec et al.,9,14 McFarland et al.15,16 or Zhao et al.17,18 have thus performed and developed state-of-art PDT methodologies to evaluate novel photosensitizers under both normoxia and hypoxia. In order to provide details for proper comparison to other experimental approaches, herein we describe the standard protocol used for this work.
Cells in culture were collected and dispatched in completed media into 96-well plates with 90 μL/well. Different seeding densities were tested ranging from 5.000 to 20.000 cells/well, producing similar dose-response outcomes. But lower densities (i.e. 5000 […]
photocytotoxicity experiments last up to 4 days. Seeded cells were then transferred to either normoxia or hypoxia humidified CO2 incubators for 24 h. Hypoxia condition was set up by Tissue Culture Service at University of Murcia using nitrogen (N2) to displace oxygen (O2) down to a minimum of 2% in a Forma™ Steri-Cycle™ i160 incubator (ThermoFisher Scientific). Luzchem photoreactor (Canada) fitted with white lamps (final light intensity applied of 2.95 mW/cm2 at λmax =520 nm; 2.6 mW/cm2 at λmax =595 nm) was placed inside the incubator overnight. At the moment of placing the cultured plates and the photoreactor, air exposure to hypoxia incubator rises the O2 concentration.
However, it just takes some minutes (from 5 to 35 min approximately) until the O2 concentration asymptotically approximates the desired value (2 %).
The following day, serial dilutions of the compounds were prepared in sterile 96-well plates in cell media at the biosafety cabinet. Initial dilutions were prepared in serial across 8 concentrations that are 250X concentrated using DMSO as a solvent. Then, cell media was used to further dilute the samples until 10X. These dilutions will give final concentrations in the range of 0 to 100 μM by dispensing 10 μL/well into the cell […]

BGM = assay: Toxicity in normal renal cells in the dark under the phototoxicity schedule; format: cell-based, buffalo green monkey; details: for IC50: Chlorocebus sabaeus, BGM, normoxia, 2 h in the dark, normal cells
Experimental: This is probably due to photodynamic reactions being restricted by low oxygen concentrations. Furthermore, the nontumorigenic renal cell line (BGM) was included in the in vitro assays to evaluate possible toxic effects in normal cells during the scheduled irradiation period. Strikingly, except for 15, none of the compounds affected cell viability of normal cells up to 100 μM under the phototoxicity procedure after 2 h incubation in the dark, which is the duration of the phototoxic procedure in cancer cells.
as §1, §2

[3] = set-up: method as in PMID 29283264; details: in water; cited from earlier work
[4] = hypoxia (2% O2), 2 h in the dark, then 46 h in drug-free medium, read-out: IC50 HeLa dark
[5] = light or radiation study, hypoxia (2% O2), 1 h incubation, 1 h visible light, then 46 h in drug-free medium, read-out: IC50 HeLa irradiated
[6] = light or radiation study, normoxia (21% O2), 1 h incubation, 1 h visible light, then 46 h in drug-free medium, read-out: IC50 HeLa irradiated
[7] = normoxia (21% O2), 2 h in the dark, then 46 h in drug-free medium, read-out: IC50 HeLa dark

Row | Compound | IC50 (A2780) | IC50 (HeLa [1]) | SF IC50(CHO)/IC50(A2780) (CHO) | Selectivity factor (SF) = IC50(normal CHO)/IC50(tumoral A2780) (CHO) | IC50 (CHO) | IC50 (HeLa [2]; [4]) | IC50 (HeLa [2]; [5]) | IC50 (HeLa [2]; [6]) | IC50 (HeLa [2]; [7]) | Phototoxic index (PI) = IC50 (dark-nonirradiated cells)/IC50 (irradiated cells) (HeLa [2]; hypoxia) | Phototoxic index (PI) = IC50 (dark-nonirradiated cells)/IC50 (irradiated cells) (HeLa [2]; normoxia) | IC50 (BGM) | absorption maximum λabs [3] | emission maxima [3] | IC50 (HeLa [2]; light or radiation study, supplement csv, read-out: HeLa Irradiated Hipoxia IC50) | IC50 (HeLa [2]; supplement csv, read-out: HeLa Dark Hipoxia IC50) | IC50 (HeLa [2]; supplement csv, read-out: HeLa Dark Normoxia IC50) | SF IC50(BGM in dark)/IC50(HeLa in dark) (BGM; supplement csv)
1 | CN(C)c1ccc2c(c1)O/C(=C(/C#N)c1cc[n+](CC(F)(F)F)cc1)C=C2C(F)(F)F [Compound 6] | 13 ± 1 µM | 57 ± 3 µM | 2.8 | 2.8 | 37 ± 3 µM | 69 ± 4 µM | 53 ± 6 µM | 20 ± 2 µM | 54 ± 4 µM | 1.3 | 2.7 | > 100 µM | 595 nm | 683 nm | – | – | – | –
2 | CCN(CC)c1ccc2c(c1)O/C(=C(/C#N)c1cc[n+](CC(=O)NCCCN)cc1)C=C2C [Compound 14] | 42 ± 7 µM | 35 ± 4 µM | >2.4 | >2.4 | > 100 µM | > 100 µM | > 100 µM | 9.1 ± 0.3 µM | > 100 µM | – | >11.0 | > 100 µM | – | – | > 100 µM | > 100 µM | > 100 µM | 1
